Test results: PubChem BioAssay AID1963846 (Molecular Pharmacology Branch, DTP, NCI, 2024)

Test system: 454973-116-R2-J3-PDC complex spheroid viability
Experiment: Anticancer human tumor 454973-116-R2-J3-PDC patient-derived pancreatic carcinoma cell line growth inhibition [POLQ]
Conditions: for IC50: curve of first compound; for viability, T/C: stronger effect = lower value
Summary of the method: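 PDC + HUVEC + MSC complex spheroids; POLQ inhibitors ± partner drugs; top conc. at/near clinical Cmax, else 10 microM (SN-38 1 microM), half-log dilutions; 37 degrees C, 5% CO2.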

[1] = second compound 0.0316 µM, first compound 0.0316 µM
[2] = second compound 0.0316 µM, first compound 0.1 µM
[3] = second compound 0.0316 µM, first compound 0.316 µM
[4] = second compound 0.0316 µM, first compound 1 µM
[5] = second compound 0.0316 µM, first compound 3.16 µM
[6] = second compound 0.0316 µM, first compound 10 µM
[7] = second compound 0.1 µM, first compound 0.0316 µM
[8] = second compound 0.1 µM, first compound 0.1 µM
[9] = second compound 0.1 µM, first compound 0.316 µM
[10] = second compound 0.1 µM, first compound 1 µM
[11] = second compound 0.1 µM, first compound 3.16 µM
[12] = second compound 0.1 µM, first compound 10 µM
[13] = second compound 0.316 µM, first compound 0.0316 µM
[14] = second compound 0.316 µM, first compound 0.1 µM
[15] = second compound 0.316 µM, first compound 0.316 µM
[16] = second compound 0.316 µM, first compound 1 µM
[17] = second compound 0.316 µM, first compound 3.16 µM
[18] = second compound 0.316 µM, first compound 10 µM
[19] = second compound 1 µM, first compound 0.0316 µM
[20] = second compound 1 µM, first compound 0.1 µM
[21] = second compound 1 µM, first compound 0.316 µM
[22] = second compound 1 µM, first compound 1 µM
[23] = second compound 1 µM, first compound 3.16 µM
[24] = second compound 1 µM, first compound 10 µM
[25] = second compound 3.16 µM, first compound 0.0316 µM
[26] = second compound 3.16 µM, first compound 0.1 µM
[27] = second compound 3.16 µM, first compound 0.316 µM
[28] = second compound 3.16 µM, first compound 1 µM
[29] = second compound 3.16 µM, first compound 3.16 µM
[30] = second compound 3.16 µM, first compound 10 µM
[31] = second compound 10 µM, first compound 0.0316 µM
[32] = second compound 10 µM, first compound 0.1 µM
[33] = second compound 10 µM, first compound 0.316 µM
[34] = second compound 10 µM, first compound 1 µM
[35] = second compound 10 µM, first compound 3.16 µM
[36] = second compound 10 µM, first compound 10 µM
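Also: spheroids exposed to drugs for seven days before measurement.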
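For viability, T/C in this document: percent viability relative to DMSO vehicle control wells taken as 100%.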

O=C(c1cc(Cc2n[nH]c(=O)c3ccccc23)ccc1F)N1CCN(C(=O)C2CC2)CC1 + COC1C(OC(N)=O)C(O)C(Oc2ccc3c(O)c(NC(=O)c4ccc(O)c(CC=C(C)C)c4)c(=O)oc3c2C)OC1(C)C
IC50 (second compound 0.0316 µM): > 10 µM
IC50 (second compound 0.1 µM): > 10 µM
IC50 (second compound 0.316 µM): > 10 µM
IC50 (second compound 1 µM): > 10 µM
IC50 (second compound 3.16 µM): > 10 µM
IC50 (second compound 10 µM): > 10 µM
viability, T/C [1]: 103%
viability, T/C [2]: 105%
viability, T/C [3]: 96.9%
viability, T/C [4]: 116%
viability, T/C [5]: 93.7%
viability, T/C [6]: 61.6%
viability, T/C [7]: 106%
viability, T/C [8]: 113%
viability, T/C [9]: 106%
viability, T/C [10]: 116%
viability, T/C [11]: 94.6%
viability, T/C [12]: 63.2%
viability, T/C [13]: 110%
viability, T/C [14]: 107%
viability, T/C [15]: 99.4%
viability, T/C [16]: 113%
viability, T/C [17]: 98.3%
viability, T/C [18]: 69.7%
viability, T/C [19]: 121%
viability, T/C [20]: 104%
viability, T/C [21]: 104%
viability, T/C [22]: 105%
viability, T/C [23]: 97.5%
viability, T/C [24]: 63.3%
viability, T/C [25]: 115%
viability, T/C [26]: 104%
viability, T/C [27]: 109%
viability, T/C [28]: 103%
viability, T/C [29]: 94.7%
viability, T/C [30]: 64.2%
viability, T/C [31]: 106%
viability, T/C [32]: 94%
viability, T/C [33]: 95.6%
viability, T/C [34]: 107%
viability, T/C [35]: 99.2%
viability, T/C [36]: 59.4%

CNCc1ccc(-c2[nH]c3cc(F)cc4c3c2CCNC4=O)cc1 + COC1C(OC(N)=O)C(O)C(Oc2ccc3c(O)c(NC(=O)c4ccc(O)c(CC=C(C)C)c4)c(=O)oc3c2C)OC1(C)C
IC50 (second compound 0.0316 µM): > 10 µM
IC50 (second compound 0.1 µM): > 10 µM
IC50 (second compound 0.316 µM): > 10 µM
IC50 (second compound 1 µM): > 10 µM
IC50 (second compound 3.16 µM): > 10 µM
IC50 (second compound 10 µM): > 10 µM
viability, T/C [1]: 99.4%
viability, T/C [2]: 115%
viability, T/C [3]: 98.6%
viability, T/C [4]: 106%
viability, T/C [5]: 104%
viability, T/C [6]: 92%
viability, T/C [7]: 98.2%
viability, T/C [8]: 103%
viability, T/C [9]: 103%
viability, T/C [10]: 104%
viability, T/C [11]: 106%
viability, T/C [12]: 89.1%
viability, T/C [13]: 102%
viability, T/C [14]: 113%
viability, T/C [15]: 100%
viability, T/C [16]: 105%
viability, T/C [17]: 95.8%
viability, T/C [18]: 87.8%
viability, T/C [19]: 106%
viability, T/C [20]: 99%
viability, T/C [21]: 101%
viability, T/C [22]: 98.7%
viability, T/C [23]: 97.8%
viability, T/C [24]: 88%
viability, T/C [25]: 112%
viability, T/C [26]: 104%
viability, T/C [27]: 101%
viability, T/C [28]: 98.8%
viability, T/C [29]: 99.3%
viability, T/C [30]: 87.5%
viability, T/C [31]: 103%
viability, T/C [32]: 97.3%
viability, T/C [33]: 92.8%
viability, T/C [34]: 98.3%
viability, T/C [35]: 92%
viability, T/C [36]: 85.1%

CC(=O)O[C@H]1C(=O)[C@@]2(C)[C@H]([C@H](OC(=O)c3ccccc3)[C@]3(O)C[C@H](OC(=O)[C@H](O)[C@@H](NC(=O)c4ccccc4)c4ccccc4)C(C)=C1C3(C)C)[C@]1(OC(C)=O)CO[C@@H]1C[C@@H]2O + Cc1cccc(N(C)C(=O)C2C(O)CCN2c2nc(C)cc(C(F)(F)F)c2C#N)c1
IC50 (second compound 0.0316 µM): < 0.00949 µM
IC50 (second compound 0.1 µM): < 0.00949 µM
IC50 (second compound 0.316 µM): < 0.00949 µM
IC50 (second compound 1 µM): < 0.00949 µM
IC50 (second compound 3.16 µM): < 0.00949 µM
IC50 (second compound 10 µM): < 0.00949 µM
viability, T/C (second compound 0.0316 µM, first compound 0.00949 µM): 5.9%
viability, T/C (second compound 0.0316 µM, first compound 0.03 µM): 5.78%
viability, T/C (second compound 0.0316 µM, first compound 0.0949 µM): 4.79%
viability, T/C (second compound 0.0316 µM, first compound 0.3 µM): 5.44%
viability, T/C (second compound 0.0316 µM, first compound 0.949 µM): 6.64%
viability, T/C (second compound 0.0316 µM, first compound 3 µM): 4.88%
viability, T/C (second compound 0.1 µM, first compound 0.00949 µM): 7.63%
viability, T/C (second compound 0.1 µM, first compound 0.03 µM): 5.67%
viability, T/C (second compound 0.1 µM, first compound 0.0949 µM): 4.39%
viability, T/C (second compound 0.1 µM, first compound 0.3 µM): 5.55%
viability, T/C (second compound 0.1 µM, first compound 0.949 µM): 5.21%
viability, T/C (second compound 0.1 µM, first compound 3 µM): 5.24%
viability, T/C (second compound 0.316 µM, first compound 0.00949 µM): 7.72%
viability, T/C (second compound 0.316 µM, first compound 0.03 µM): 6.78%
viability, T/C (second compound 0.316 µM, first compound 0.0949 µM): 5.34%
viability, T/C (second compound 0.316 µM, first compound 0.3 µM): 4.54%
viability, T/C (second compound 0.316 µM, first compound 0.949 µM): 4.69%
viability, T/C (second compound 0.316 µM, first compound 3 µM): 5.5%
viability, T/C (second compound 1 µM, first compound 0.00949 µM): 7.85%
viability, T/C (second compound 1 µM, first compound 0.03 µM): 5.01%
viability, T/C (second compound 1 µM, first compound 0.0949 µM): 5.19%
viability, T/C (second compound 1 µM, first compound 0.3 µM): 5.01%
viability, T/C (second compound 1 µM, first compound 0.949 µM): 5.7%
viability, T/C (second compound 1 µM, first compound 3 µM): 4.36%
viability, T/C (second compound 3.16 µM, first compound 0.00949 µM): 6.74%
viability, T/C (second compound 3.16 µM, first compound 0.03 µM): 5.6%
viability, T/C (second compound 3.16 µM, first compound 0.0949 µM): 5.28%
viability, T/C (second compound 3.16 µM, first compound 0.3 µM): 4.99%
viability, T/C (second compound 3.16 µM, first compound 0.949 µM): 5.45%
viability, T/C (second compound 3.16 µM, first compound 3 µM): 4.91%
viability, T/C (second compound 10 µM, first compound 0.00949 µM): 6.83%
viability, T/C (second compound 10 µM, first compound 0.03 µM): 5.22%
viability, T/C (second compound 10 µM, first compound 0.0949 µM): 5.42%
viability, T/C (second compound 10 µM, first compound 0.3 µM): 5.06%
viability, T/C (second compound 10 µM, first compound 0.949 µM): 4.84%
viability, T/C (second compound 10 µM, first compound 3 µM): 5.41%
